In publication PMC3710446 (Journal of pharmaceutical sciences, 2011):

Columns and labels:
[1] = test system: SOPT2; assay: Influence of compounds on [3H]DADLE uptake in RGC-5 cells; format: cell-based, rat; details: compound 1 mM; for [3H]DADLE uptake in the presence of compound, % of control (Table 2): [3H]DADLE 10 nM, 30 min, control = 100; for stimulation of [3H]DADLE uptake: p < 0.001
[2] = test system: SOPT1; assay: Uptake of [3H]deltorphin II in RGC-5 cells and influence of tripeptides; details: RGC-5 cells, deltorphin II 25 nM
[3] = test system: SOPT2; assay: Uptake of [3H]DADLE in RGC-5 cells; details: DADLE 25 nM, 30 min of incubation
[4] = test system: RGC-5 cells; assay: Uptake of FITC-labeled HIV-1 Tat47–57 in RGC-5 cells; format: cell-based, rat; details: FITC-Tat 25 nM, 15 min, NaCl-containing buffer, confocal microscopy

## C=CCN1CC[C@]23c4c5ccc(O)c4O[C@H]2C(=O)CC[C@@]3(O)[C@H]1C5 [Naloxone, naloxone]
[1]
  [3H]DADLE uptake in the presence of compound, % of control (Table 2): 133%
  stimulation of [3H]DADLE uptake: 33%

## CC(C)[C@H](NC(=O)[C@H](CCC(=O)O)NC(=O)[C@H](Cc1ccccc1)NC(=O)[C@@H](C)NC(=O)[C@@H](N)Cc1ccc(O)cc1)C(=O)N[C@H](C(=O)NCC(N)=O)C(C)C [Deltorphin II]
[2]; absence of Na+
  uptake of deltorphin II: 1.1 ± 0.1 pmol/mg of protein/30 min
[2]; presence of Na+
  uptake of deltorphin II: 3.6 ± 0.2 pmol/mg of protein/30 min

## O=C1CC[C@@]2(O)[C@H]3Cc4ccc(O)c5c4[C@@]2(CCN3CC2CC2)[C@H]1O5 [Naltrexone, naltrexone]
[1]
  [3H]DADLE uptake in the presence of compound, % of control (Table 2): 150%
  stimulation of [3H]DADLE uptake: 50%

## CC(C)C[C@@H](NC(=O)[C@H](Cc1ccccc1)NC(=O)CNC(=O)[C@@H](C)NC(=O)[C@@H](N)Cc1ccc(O)cc1)C(=O)O [DADLE, [D-Ala^2, D-Leu^5]-Enkephalin]
[3]
  uptake in the presence of Na+ relative to uptake in the absence of Na+: 2–3 times

## FITC-Tat47–57: Fluorescein isothiocyanate-conjugated Tat47–57 peptide
[4]
  cellular uptake of FITC-labeled peptide (cell-associated green fluorescence): enters RGC-5 cells
